Measurements taken from patent publication US5554620A, “Substituted 6,11-ethano-6,11-dihydrobenzo[b] quinolizinium salts and compositions and methods of use thereof” (Sterling Winthrop Inc., priority 1994, dated 1996).

Tests used:
[1] = tested on: cultured cortical neurons; assay: Antagonism of NMDA-induced neurotoxicity in cultured cortical neurons (LDH release); format: cell-based, mouse (Swiss-Webster); settings: 500 μM NMDA, 30 min exposure, LDH 24 h later
Experimental: Antagonism of NMDA-induced Neurotoxicity in Cultured Neurons
Preparation of Cultured Cortical Neurons
Pregnant, Swiss-Webster mice were obtained from Taconic Farms (Germantown, New York) and sacrificed 16 days post conception. Fetuses were removed and placed in a sterile dish containing Hank's balanced salt solution (HBSS), pH 7.4. Brain cortices were dissected, meninges were removed, the tissue was minced and placed into a solution of HBSS containing 0.25% (w/v) trypsin at 37° C. for 15 minutes. Tissue was then triturated with a sterile pasteur pipet, diluted with minimal essential media (Gibco 330-1430), pH 7.4, supplemented with 10% horse serum, 10% fetal calf serum, 2 mM 1-glutamine, 21 mM d-glucose, 2.2 g/L sodium bicarbonate, 1000 U/mL penicillin, and 1,000 μg/mL streptomycin. Cells were plated onto Falcon primaria 96 well plates at a final density of 50,000 cells/well and incubated at 37 °C in the presence of 5% (v/v) carbon dioxide. After 5 days, plating media was replaced with maintenance media containing minimal essential media (Gibco 330-1430), pH 7.4, supplemented with 10% horse serum, […], 21 mM d-glucose, 2.2 g/L sodium bicarbonate, 1,000 U/mL penicillin, 1,000 μg/mL streptomycin, and 10 μM cytosine arabinoside. On days 7 and 10, media was replaced with maintenance media as above lacking the cytosine arabinoside. Experiments were conducted on day 13.
Neuroprotection Assessment
Day 13 cultured cortical neurons were washed twice with minimal essential media, pH 7.4 and then exposed for 30 minutes to 500 μM N-methyl-D-aspartic acid (NMDA) with or without varying concentrations of test agents. […] MK-801 and test agents were prepared in minimal essential media supplemented with 21 mM d-glucose and 2.2 g/L sodium bicarbonate (MEM). After 30 minutes, media was replaced with MEM alone. Exposure of neurons to test agents was limited to the NMDA treatment period. Twenty-four hours after removal of NMDA, an aliquot of media from each well was removed for assessment of cell injury by determining lactate dehydrogenase (LDH) activity by the method of Wroblewski and LaDue Proc. Soc. Exp. Biol. Med. 1955, 90, 210-213. The results are expressed as an IC50 (in nM) value (concentration causing 50% inhibition) for the antagonism of NMDA--inducedneurotoxicity. Table 3 summarizes the results obtained from the testing of representative compounds of the invention in the [^3 H]TCP radioreceptor assay as well as in the antagonism of NMDA-induced neurotoxicity in cultured neurons.

PCP receptor = assay: [3H]TCP radioreceptor assay (binding to PCP recognition sites); design: species or system rat (male Sprague-Dawley, whole brain); settings: for Ki: [3H]TCP approx. 1 nM, rat brain membranes, mean of at least two determinations; for [3H]TCP percent inhibition @ 10 μm: inhibition of [3H]TCP binding at 10 μM
In short: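 Rat whole-brain membranes (Tris-HCl, pH 7.7), 0.5 mg protein/tube, incubated with ~1 nM [3H]TCP for 25 min at room temperature; non-specific binding defined with 100 μM PCP. Bound ligand collected by filtration and counted by scintillation; Ki from at least two determinations, or % inhibition at 10 μM.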

[O-][Cl+3]([O-])([O-])[O-].c1ccc2c(c1)C1CC(c3ccoc3)(c3ccn[nH]3)C2c2cccc[n+]21 (single isomer, unassigned) [185(a), 6,11-ethano-12-(3-furyl)-12-(5-pyrazolyl]-6,11-dihydrobenzo[b]quinolizinium perchlorate]
IC50 ([1]; Mus musculus, Cortical neurone): 32.6 nM
Ki (PCP receptor): 4.55 nM

CC1C2c3ccccc3C(c3cccc[n+]32)C1(c1ccoc1)c1ccoc1 (single isomer, unassigned) [181(d), 6,11-ethano-12,12-di(3-furyl)-13-methyl-6,11-dihydrobenzo[b]quinolizinium hexafluorophosphate]
IC50 [1]: 55 nM
Ki (PCP receptor): 6.15 nM

Oc1ccc2c(c1)C1c3cccc[n+]3C2CC1(c1ccoc1)c1ccoc1 (stereo not drawn) [Example 193, 12,12-di(3-furyl)-9-hydroxy-6,11-ethano-6,11-dihydrobenzo[b]quinolizinium chloride]
IC50 ([1]; Mus musculus, Cortical neurone): 11.8 nM
Ki (PCP receptor): 2.13 nM

N#CC12CC(c3ccoc3)(c3ccoc3)C(c3ccccc31)c1cccc[n+]12 (stereo not drawn) [171(b), 6,11-ethano-12,12-di(3-furyl)-6-cyano-6,11-dihydrobenzo[b]quinolizinium chloride]
IC50 ([1]; Mus musculus, Cortical neurone): 26.5 nM
Ki (PCP receptor): 10.2 nM

Fc1ccc2c(c1)C1c3cccc[n+]3C2CC1(c1ccoc1)c1ccoc1.[O-][Cl+3]([O-])([O-])[O-] (stereo not drawn) [196(c), 12,12-di(3-furyl)-9-fluoro-6,11-ethano-6,11-dihydrobenzo[b]quinolizinium perchlorate]
IC50 ([1]; Mus musculus, Cortical neurone): 80 nM
Ki (PCP receptor): 4.11 nM

c1ccc2c(c1)CC1C3c4ccccc4C(c4cccc[n+]43)C21c1ccoc1 (stereo not drawn) [6(d), 6.11[[2',3']-3'-(3-furyl)indanyl]6,11-dihydrobenzo[b]quinolizinium chloride]
IC50 ([1]; Mus musculus, Cortical neurone): 244 nM
Ki (PCP receptor): 1.2 nM

c1ccc2c(c1)C1CC(c3ccsc3)(c3ccsc3)C2c2cccc[n+]21 (stereo not drawn) [52(F), 6,11-ethanol 12,12-di(3-thienyl)-6,11-dihydrobenzo[b]quinolizinium chloride]
IC50 ([1]; Mus musculus, Cortical neurone): 39 nM
Ki (PCP receptor): 1.82 nM

CC12CC(c3cccs3)(c3cccs3)C(c3ccccc31)c1cccc[n+]12 (stereo not drawn) [47(d), 6,11-ethano-12,12-di(2-thienyl)-6-methyl-6,11-dihydrobenzo[b]quinoliziniumchloride]
IC50 ([1]; Mus musculus, Cortical neurone): 40 nM
Ki (PCP receptor): 2.11 nM

c1ccc2c(c1)-c1ccccc1C21CC2c3ccccc3C1c1cccc[n+]12 (stereo not drawn) [58(c), 6,11-ethano-12,12-spiro-9H-fluorenyl-6,11-dihydrobenzo[b]quinolizinium chloride]
IC50 ([1]; Mus musculus, Cortical neurone): > 1000 nM
[3H]TCP percent inhibition @ 10 μm (PCP receptor): 32%

CC12CC(c3ccoc3)(c3ccoc3)C(c3ccccc31)c1cccc[n+]12 (stereo not drawn) [50(b), 6,11ethano-12,12-di(3-furanyl)-6-methyl-6,11-dihydrobenzo[b]quinolizinilium chloride]
IC50 ([1]; Mus musculus, Cortical neurone): 22 nM
Ki (PCP receptor): 1.24 nM

CCOC1(c2ccoc2)CC2c3ccccc3C1c1cccc[n+]12 (stereo not drawn) [11(g), 6,11-ethano-12-(3-furyl)-12-ethoxy-6,11-dihydrobenzo[b]quinolizinium chloride]
IC50 [1]: 2000 nM
Ki (PCP receptor): 18 nM

CC12c3ccccc3C(c3cccc[n+]31)C(c1ccccc1)(c1ccccc1)C21CC1 (stereo not drawn) [51(c), 6,11-ethano-12,12-diphenyl-6-methyl-13,13-(spirocyclopropane)-6,11-dihydrobenzo[b]quinolizinium chloride]
IC50 ([1]; Mus musculus, Cortical neurone): 83 nM
Ki (PCP receptor): 22.3 nM

c1ccc2c(c1)C1CC(c3ccn[nH]3)(c3ccn[nH]3)C2c2cccc[n+]21 (stereo not drawn) [63(d), 6,11-ethano-12,12-di(5-pyrazolyl)-6,11-dihydrobenzo[b]quinoliziniumperchlorate]
IC50 [1]: 1630 nM
Ki (PCP receptor): 10 nM

c1ccc2c(c1)C1CC(c3ccn[nH]3)(c3ccn[nH]3)C2c2cccc[n+]21 (stereo not drawn) [64(f), 11-ethano-12,12-di-[(pyrazol-5-yl)-6,11-dihydrobenzo[b]quinolizinium chloride]
IC50 [1]: 360 nM
Ki (PCP receptor): 13 nM

c1ccc(C2(c3ccccc3)CC3c4ccccc4C2c2cccc[n+]23)cc1 (stereo not drawn) [17(b), 6,11-ethano-12,12-diphenyl-6,11-dihydrobenzo[b]quinolizinium chloride]
IC50 [1]: 197 nM
Ki (PCP receptor): 8.18 nM

CCOC1(c2ccoc2)CC2c3ccccc3C1c1cccc[n+]12 (stereo not drawn) [11(F), 6,11-ethano-12-(3-furyl)-12-ethoxy-6,11-dihydrobenzo[b]quinolizinium chloride]
IC50 ([1]; Mus musculus, Cortical neurone): 2550 nM
Ki (PCP receptor): 73 nM

c1ccc2c(c1)C1C3CCc4occc4C3(c3ccoc3)C2c2cccc[n+]21 (stereo not drawn) [7(b), 6,11[[5',4']-4'-(3-furyl)-4',5',6',7'-tetrahydrobenzofuryl]6,11-dihydrobenzo[b]quinolizinium hexafluorophosphate]
IC50 ([1]; Mus musculus, Cortical neurone): 7.6 nM
Ki (PCP receptor): 1.38 nM

[O-][Cl+3]([O-])([O-])[O-].c1ccc2c(c1)C1CC(c3ccoc3)(c3ccn[nH]3)C2c2cccc[n+]21 (single isomer, unassigned) [185(b), 6,11-ethano-12-(3-furyl)-12-(5-pyrazolyl]-6,11-dihydrobenzo[b]quinolizinium perchlorate]
IC50 [1]: 53 nM
Ki (PCP receptor): 6.29 nM

c1csc(C2(c3cccs3)CC3c4ccccc4C2c2cccc[n+]23)c1 (stereo not drawn) [48(b), 6,11-ethano-12,12-di(2-thienyl)-6,11-dihydrobenzo[b]quinolizinium chloride]
IC50 [1]: 23 nM
Ki (PCP receptor): 2.08 nM

CC12CC(c3ccccc3)(c3ccccc3)C(c3ccccc31)c1cccc[n+]12 (stereo not drawn) [19(b), 6,11-ethano-12,12-diphenyl-6-methyl-6,11-dihydro-benzo[b]quinolizinium. Chloride]
IC50 ([1]; Mus musculus, Cortical neurone): 102 nM
Ki (PCP receptor): 6.8 nM

COc1ccc[n+]2c1C1c3ccccc3C2CC1(c1ccoc1)c1ccoc1 (stereo not drawn) [164(e), 6,11-ethano-12,12-di(3-furyl)-1-methoxy-6,11-dihydrobenzo[b]quinolizinium chloride]
Ki (PCP receptor): 18.9 nM

Cc1ccc(S(=O)(=O)n2nccc2C2(c3ccoc3)CC3c4cccc(O)c4C2c2cccc[n+]23)cc1 (single isomer, unassigned) [Example 199(a), 6,11-ethano-12-(3-furyl)-12-[1-(p-toluenesulfon-yl)-pyrazol-5-yl]-10-hydroxy-6,11-dihydrobenzo[b]quinolizinium perchlorate]
[3H]TCP percent inhibition @ 10 μm (PCP receptor): 27%

c1ccc(C2(c3ccccn3)CC3c4ccccc4C2c2cccc[n+]23)nc1 (stereo not drawn) [24(b), 6,11-ethano-12,12-di-(2-pyridyl)-6,11-dihydrobenzo[b]quinolizinium chloride hydrate]
Ki (PCP receptor): 8.39 nM

Fc1ccc[n+]2c1C1c3ccccc3C2CC1(c1ccoc1)c1ccoc1.[O-][Cl+3]([O-])([O-])[O-] (stereo not drawn) [197(d), 6,11-ethano-12,12-di(3-furyl)-1-fluoro-6,11-dihydrobenzo[b]quinolizinium perchlorate]
Ki (PCP receptor): 13.8 nM

CC1C2c3ccccc3C(c3cccc[n+]32)C1(c1ccoc1)c1ccoc1 (single isomer, unassigned) [181(c), 6,11-ethano-12,12-di(3-furyl)-13-methyl-6,11-dihydrobenzo[b]quinolizinium hexafluorophosphate]
IC50 [1]: 11.4 nM
Ki (PCP receptor): 6.36 nM

O=[N+]([O-])c1cccc2c1C1c3cccc[n+]3C2CC1(c1ccoc1)c1ccoc1.[O-][Cl+3]([O-])([O-])[O-] (single isomer, unassigned) [Example 201(d), 6,11-ethano-12,12-di(3-furyl)-10-nitro-6,11-dihydrobenzo[b]quinolizinium perchlorate]
Ki (PCP receptor): 49.2 nM

6,11-ethano-12,12-di(3-furyl)-10-stearyloxy-6,11-dihydrobenzo[b]quinolizinium chloride [Example 163]
Ki (PCP receptor): 7.54 nM

COc1cccc(C2(c3cccc(OC)n3)CC3c4ccccc4C2c2cccc[n+]23)n1.[O-][Cl+3]([O-])([O-])[O-] (stereo not drawn) [67(e), 6,11-ethano-12,12-di-(6-methoxypyridin-2-yl)-6,11-dihydrobenzo[b]quinolizinium perchlorate]
Ki (PCP receptor): 80 nM

COc1cccc2c1C1c3cccc[n+]3C2(C)CC1(c1ccccc1)c1ccccc1 (stereo not drawn) [37(E), 6,11-ethano-12,12-diphenyl-10-methoxy-6-methyl-6,11-dihydrobenzo[b]quinolizinium chloride]
Ki (PCP receptor): 36.7 nM

Brc1cc2cn[nH]c2c2cc3cccc[n+]3cc12 [186(g), 7-bromo-9,10-pyrazolo-benzo[b]quinolizinium hexafluorophosphate]
Ki (PCP receptor): 122 nM
